Test results from patent US11104648B2, “Pyrazole derivative” (Zhejiang Research Institute of Chemical Industry Co., Ltd., priority 2018, dated 2021).
Read-outs that look alike come from different tables or passages of the source.

How the values were obtained:
Format in all cases: in vivo
[1] = system: adult Tetranychus cinnabarinus; assay: Activity assay of adult Tetranychus cinnabarinus (whole-plant spray on bean seedlings); conditions: 48 h, read-out: adult mite-killing activity
Method: According to the solubility of the test compound, the crude drug was dissolved in N, N-dimethlfornamide, and then prepared into a test solution of the desired concentration with 1‰ Tween 80 aqueous solution. The content of N,N-dimethylformamide in the solution should not exceed 10%.
Two euphylla bean seedlings were taken, after inoculated with adult Tetranychus cinnabarinus and the base number was investigated, whole plants were sprayed with a hand-held sprayer. The experiment was repeated three times for each treatment, after treatment, placed in a standard observation room after treatment, to investigate the survival number of mites in 48 hand calculate the death rate.

[2] = system: Tetranychus cinnabarinus Nymphs; assay: Activity assay of Tetranychus cinnabarinus nymphs (spray on broad bean leaves)
Method: According to the solubility of the test compound, the crude drug was dissolved in N, N-dimethylformamide, and then prepared into a test solution of the desired concentration with 1‰ Tween 80 aqueous solution. The content of N,N-dimethylformamide in the solution should not exceed 10%.
The broad bean leaves with petioles were cut and inserted into a small bottle with water. A certain number of brightly colored, active female adult mites were placed, 24h later, adult mites were removed, and leaves with insufficient eggs were removed. When eggs were hatched and grew into nymphs, spray treatment was performed. The experiment was repeated three times, and a blank control was set, and placed to an observation room (26±2° C., humidity 70%˜80%, 16h light per day) for culture. 48 h later, the results were investigated. The nymphs were gently touched during investigation, and if no response, they were regarded as deaths.

[3] = system: Eggs of Tetranychus Cinnabarinus; assay: Activity assay of eggs of Tetranychus cinnabarinus (spray method, ovicidal); conditions: Tetranychus cinnabarinus, read-out: ovicidal activity
Method: According to the solubility of the test compound, the crude drug was dissolved in N N-dimethylformamide, and then prepared into a test solution of the desired concentration with 1‰ Tween 80 aqueous solution. The content of N. N-dimethylformamide in the solution should not exceed 10%.
Spray method. The broad bean leaves with petioles were cut and inserted into a bottle with water. A certain number of female mites were placed, 24h later, adult mites were removed, and spray treatment was performed in 24 h. The experiment was repeated three times, and a blank control was set, and placed to an observation room (26±2° C., humidity 70%˜80%, 16h light per day) for culture. When the blank control group was incubated, the results were investigated. The non-incubated ones were used as death for investigation.

[4] = 48 h, concentration 2.5 mg/L, read-out: nymph-killing activity
[5] = concentration 5 mg/L, spray, non-incubated eggs counted as dead
[6] = concentration 2.5 mg/L, 48 h, read-out: nymph-killing activity
[7] = 48 h, read-out: nymph-killing activity

SMILES	pest or weed control at 2.5 µg/mL ([1]; concentration 2.5 mg/L)	pest or weed control at 2.5 µg/mL [2, 4]	pest or weed control at 5 µg/mL [3, 5]	pest or weed control at 2.5 µg/mL [2, 6]	pest or weed control at 2.5 µg/mL [1]	pest or weed control at 2.5 µg/mL [2, 7]	pest or weed control at 5 µg/mL [3]
Cc1cc(/C(OC(C)OC(=O)C(F)(F)F)=C(\C#N)c2ccc(C(C)(C)C)cc2)n(C)n1 (stereo not drawn) [Compound 38]	≥ 90%	≥ 95%	≥ 90%	–	–	–	–
Cc1cc(/C(OC(C)OC(=O)c2ccccc2)=C(\C#N)c2ccc(C(C)(C)C)cc2)n(C)n1 (stereo not drawn) [Compound 39]	≥ 90%	≥ 95%	≥ 90%	–	–	–	–
Cc1cc(/C(OC(C)OC(=O)Cc2ccccc2)=C(\C#N)c2ccc(C(C)(C)C)cc2)n(C)n1 (stereo not drawn) [Compound 40]	≥ 90%	–	≥ 90%	≥ 95%	–	–	–
CCC(C)(C)C(=O)OC(C)O/C(=C(/C#N)c1ccc(C(C)(C)C)cc1)c1cc(C)nn1C (stereo not drawn) [Compound 41]	≥ 90%	≥ 95%	≥ 90%	–	–	–	–
C=CC(=O)OC(C)O/C(=C(/C#N)c1ccc(C(C)(C)C)cc1)c1cc(C)nn1C (stereo not drawn) [Compound 42]	≥ 90%	≥ 95%	≥ 90%	–	–	–	–
CC(=O)OCO/C(=C(/C#N)c1ccc(C(C)(C)C)cc1)c1c(Cl)c(C)nn1C [Compound 76]	≥ 90%	≥ 95%	≥ 90%	–	–	–	–
CCC(=O)OCO/C(=C(/C#N)c1ccc(C(C)(C)C)cc1)c1c(Cl)c(C)nn1C [Compound 77]	≥ 90%	≥ 95%	≥ 90%	–	–	–	–
CCCC(=O)OCO/C(=C(/C#N)c1ccc(C(C)(C)C)cc1)c1c(Cl)c(C)nn1C [Compound 78]	≥ 90%	≥ 95%	≥ 90%	–	–	–	–
Cc1nn(C)c(/C(OCOC(=O)C(C)C)=C(\C#N)c2ccc(C(C)(C)C)cc2)c1Cl [Compound 79]	≥ 90%	≥ 95%	≥ 90%	–	–	–	–
Cc1nn(C)c(/C(OCOC(=O)C(C)(C)C)=C(\C#N)c2ccc(C(C)(C)C)cc2)c1Cl [Compound 80]	≥ 90%	≥ 95%	≥ 90%	–	–	–	–
CCCCC(=O)OCO/C(=C(/C#N)c1ccc(C(C)(C)C)cc1)c1c(Cl)c(C)nn1C [Compound 81]	≥ 90%	≥ 95%	≥ 90%	–	–	–	–
Cc1nn(C)c(/C(OCOC(=O)CC(C)C)=C(\C#N)c2ccc(C(C)(C)C)cc2)c1Cl [Compound 82]	≥ 90%	≥ 95%	≥ 90%	–	–	–	–
COCC(=O)OCO/C(=C(/C#N)c1ccc(C(C)(C)C)cc1)c1c(Cl)c(C)nn1C [Compound 83]	≥ 90%	≥ 95%	≥ 90%	–	–	–	–
Cc1nn(C)c(/C(OCOC(=O)C2CC2)=C(\C#N)c2ccc(C(C)(C)C)cc2)c1Cl [Compound 84]	≥ 90%	≥ 95%	≥ 90%	–	–	–	–
CSCC(=O)OCO/C(=C(/C#N)c1ccc(C(C)(C)C)cc1)c1c(Cl)c(C)nn1C [Compound 85]	≥ 90%	≥ 95%	≥ 90%	–	–	–	–
Cc1nn(C)c(/C(OCOC(=O)C2CCCCC2)=C(\C#N)c2ccc(C(C)(C)C)cc2)c1Cl [Compound 86]	≥ 90%	≥ 95%	≥ 90%	–	–	–	–
Cc1nn(C)c(/C(OCOC(=O)CF)=C(\C#N)c2ccc(C(C)(C)C)cc2)c1Cl [Compound 87]	–	–	–	–	≥ 90%	≥ 95%	≥ 90%
Cc1nn(C)c(/C(OCOC(=O)C(F)(F)F)=C(\C#N)c2ccc(C(C)(C)C)cc2)c1Cl [Compound 88]	≥ 90%	≥ 95%	≥ 90%	–	–	–	–
Cc1nn(C)c(/C(OCOC(=O)c2ccccc2)=C(\C#N)c2ccc(C(C)(C)C)cc2)c1Cl [Compound 89]	≥ 90%	≥ 95%	≥ 90%	–	–	–	–
Cc1nn(C)c(/C(OCOC(=O)Cc2ccccc2)=C(\C#N)c2ccc(C(C)(C)C)cc2)c1Cl [Compound 90]	≥ 90%	–	≥ 90%	≥ 95%	–	–	–

SMILES	pest or weed control at 2.5 µg/mL ([1]; concentration 2.5 mg/L)	pest or weed control at 2.5 µg/mL [2, 4]	pest or weed control at 5 µg/mL [3, 5]	pest or weed control at 2.5 µg/mL [2, 6]	pest or weed control at 2.5 µg/mL [1]	pest or weed control at 2.5 µg/mL [2, 7]	pest or weed control at 5 µg/mL [3]
CCC(C)(C)C(=O)OCO/C(=C(/C#N)c1ccc(C(C)(C)C)cc1)c1c(Cl)c(C)nn1C [Compound 91]	≥ 90%	≥ 95%	≥ 90%	–	–	–	–
C=CC(=O)OCO/C(=C(/C#N)c1ccc(C(C)(C)C)cc1)c1c(Cl)c(C)nn1C [Compound 92]	≥ 90%	≥ 95%	≥ 90%	–	–	–	–
CC(=O)OC(C)O/C(=C(/C#N)c1ccc(C(C)(C)C)cc1)c1c(Cl)c(C)nn1C (stereo not drawn) [Compound 101]	≥ 90%	≥ 95%	≥ 90%	–	–	–	–
CCC(=O)OC(C)O/C(=C(/C#N)c1ccc(C(C)(C)C)cc1)c1c(Cl)c(C)nn1C (stereo not drawn) [Compound 102]	≥ 90%	≥ 95%	≥ 90%	–	–	–	–
CCCC(=O)OC(C)O/C(=C(/C#N)c1ccc(C(C)(C)C)cc1)c1c(Cl)c(C)nn1C (stereo not drawn) [Compound 103]	≥ 90%	≥ 95%	≥ 90%	–	–	–	–
Cc1nn(C)c(/C(OC(C)OC(=O)C(C)C)=C(\C#N)c2ccc(C(C)(C)C)cc2)c1Cl (stereo not drawn) [Compound 104]	≥ 90%	≥ 95%	≥ 90%	–	–	–	–
CCCCC(=O)OC(C)O/C(=C(/C#N)c1ccc(C(C)(C)C)cc1)c1c(Cl)c(C)nn1C (stereo not drawn) [Compound 106]	≥ 90%	≥ 95%	≥ 90%	–	–	–	–
Cc1nn(C)c(/C(OC(C)OC(=O)CC(C)C)=C(\C#N)c2ccc(C(C)(C)C)cc2)c1Cl (stereo not drawn) [Compound 107]	≥ 90%	≥ 95%	≥ 90%	–	–	–	–
COCC(=O)OC(C)O/C(=C(/C#N)c1ccc(C(C)(C)C)cc1)c1c(Cl)c(C)nn1C (stereo not drawn) [Compound 108]	≥ 90%	≥ 95%	≥ 90%	–	–	–	–
Cc1nn(C)c(/C(OC(C)OC(=O)C2CC2)=C(\C#N)c2ccc(C(C)(C)C)cc2)c1Cl (stereo not drawn) [Compound 109]	≥ 90%	≥ 95%	≥ 90%	–	–	–	–
CSCC(=O)OC(C)O/C(=C(/C#N)c1ccc(C(C)(C)C)cc1)c1c(Cl)c(C)nn1C (stereo not drawn) [Compound 110]	≥ 90%	≥ 95%	≥ 90%	–	–	–	–
Cc1nn(C)c(/C(OC(C)OC(=O)C2CCCCC2)=C(\C#N)c2ccc(C(C)(C)C)cc2)c1Cl (stereo not drawn) [Compound 111]	≥ 90%	≥ 95%	≥ 90%	–	–	–	–
Cc1nn(C)c(/C(OC(C)OC(=O)CF)=C(\C#N)c2ccc(C(C)(C)C)cc2)c1Cl (stereo not drawn) [Compound 112]	–	–	–	–	≥ 90%	≥ 95%	≥ 90%
Cc1nn(C)c(/C(OC(C)OC(=O)C(F)(F)F)=C(\C#N)c2ccc(C(C)(C)C)cc2)c1Cl (stereo not drawn) [Compound 113]	≥ 90%	≥ 95%	≥ 90%	–	–	–	–
Cc1nn(C)c(/C(OC(C)OC(=O)c2ccccc2)=C(\C#N)c2ccc(C(C)(C)C)cc2)c1Cl (stereo not drawn) [Compound 114]	≥ 90%	≥ 95%	≥ 90%	–	–	–	–
Cc1nn(C)c(/C(OC(C)OC(=O)Cc2ccccc2)=C(\C#N)c2ccc(C(C)(C)C)cc2)c1Cl (stereo not drawn) [Compound 115]	≥ 90%	–	≥ 90%	≥ 95%	–	–	–
CCC(C)(C)C(=O)OC(C)O/C(=C(/C#N)c1ccc(C(C)(C)C)cc1)c1c(Cl)c(C)nn1C (stereo not drawn) [Compound 116]	≥ 90%	≥ 95%	≥ 90%	–	–	–	–
C=CC(=O)OC(C)O/C(=C(/C#N)c1ccc(C(C)(C)C)cc1)c1c(Cl)c(C)nn1C (stereo not drawn) [Compound 117]	≥ 90%	≥ 95%	≥ 90%	–	–	–	–
CC(=O)OCO/C(=C(/C#N)c1ccc(C(C)(C)C)cc1)c1c(C)c(C)nn1C [Compound 151]	≥ 90%	≥ 95%	≥ 90%	–	–	–	–
